# Laboratory results taken from patent publication US20240376091A1, “THIADIAZOLEAMIDE DERIVATIVES AND THEIR APPLICATIONS” (ZHEJIANG UNIVERSITY, priority 2021, published 2024).
# Target: T1, AR (Homo sapiens, UniProt P10275, T878A)
# T1 construct: into the androgen-dependent PCa cells (LNCaP); endogenous in cells; host or cells: LNCaP-ARR2PB-eGFP
# T1 sequence (P10275 1-920 T878A): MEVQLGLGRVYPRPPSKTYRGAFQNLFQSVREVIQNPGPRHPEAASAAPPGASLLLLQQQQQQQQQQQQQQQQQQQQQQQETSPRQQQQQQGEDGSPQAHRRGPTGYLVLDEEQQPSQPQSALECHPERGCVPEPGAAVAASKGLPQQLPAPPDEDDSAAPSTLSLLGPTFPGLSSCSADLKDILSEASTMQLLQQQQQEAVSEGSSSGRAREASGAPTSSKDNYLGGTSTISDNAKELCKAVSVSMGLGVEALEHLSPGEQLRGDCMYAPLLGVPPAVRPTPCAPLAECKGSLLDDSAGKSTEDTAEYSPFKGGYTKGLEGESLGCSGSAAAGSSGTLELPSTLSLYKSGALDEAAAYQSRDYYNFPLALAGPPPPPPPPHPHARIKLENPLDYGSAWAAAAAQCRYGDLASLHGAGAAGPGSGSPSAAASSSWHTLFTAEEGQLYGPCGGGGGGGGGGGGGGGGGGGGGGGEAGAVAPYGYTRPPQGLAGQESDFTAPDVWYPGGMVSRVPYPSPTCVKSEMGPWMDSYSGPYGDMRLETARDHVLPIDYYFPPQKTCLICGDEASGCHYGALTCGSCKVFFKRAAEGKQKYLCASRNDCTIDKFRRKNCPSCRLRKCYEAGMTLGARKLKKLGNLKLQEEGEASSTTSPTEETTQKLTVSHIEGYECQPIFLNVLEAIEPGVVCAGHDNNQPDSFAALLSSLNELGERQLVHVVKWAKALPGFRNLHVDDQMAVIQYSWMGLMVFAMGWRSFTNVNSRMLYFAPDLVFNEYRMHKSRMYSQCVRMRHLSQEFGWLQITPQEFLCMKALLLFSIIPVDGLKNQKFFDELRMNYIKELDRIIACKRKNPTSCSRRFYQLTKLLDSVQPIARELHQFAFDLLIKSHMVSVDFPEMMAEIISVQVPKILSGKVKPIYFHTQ
# Experiment: AR transcriptional activity, LNCaP-ARR2PB-eGFP reporter cells
# Format: cell-based
# Settings: read-out: IC50 AR transcriptional activities
# Text: Detection principles: We conducted a stable transfection of promoter ARR2PB known for its strong AR responsiveness, into the androgen-dependent PCa cells (LNCaP). The expression of enhanced green fluorescent protein (eGFP) is depending on the degree of activation of AR. Therefore, LNCaP-ARR2PB-eGFP cell line could quantitatively determine the AR antagonistic activities of the compounds by evaluating the expression of eGFP.
row,SMILES,IC50 [µM]
1,"Cc1oc(C(=O)Nc2nc(CCl)ns2)cc1-c1cccc(C(F)(F)F)c1 [Compound F-19, N-(3-(chloromethyl)-1,2,4-thiadiazol-5-yl)-5-methyl-4-(3-(trifluoromethyl)phenyl)furan-2-carboxamide]",19.1
2,"Cc1oc(C(=O)Nc2nc(CN3CCCC3)ns2)cc1-c1cccc(C(F)(F)F)c1 [Compound F-24, 5-Methyl-N-(3-(pyrrolidin-1-ylmethyl)-1,2,4-thiadiazol-5-yl)-4-(3-(trifluoromethyl)phenyl)furan-2-carboxamide]",35.2
3,"Cc1oc(C(=O)Nc2nc(CN3CCCCC3)ns2)cc1-c1cccc(C#N)c1 [Compound F-25, 4-(3-Cyanophenyl)-5-methyl-N-(3-(piperidin-1-ylmethyl)-1,2,4-thiadiazol-5-yl)furan-2-carboxamide]",15.5
4,"COc1cccc(-c2cc(C(=O)Nc3nc(CN4CCOCC4)ns3)oc2C)c1 [Compound F-26, 4-(3-Methoxyphenyl)-5-methyl-N-(3-(morpholinomethyl)-1,2,4-thiadiazol-5-yl)furan-2-carboxamide]",31.9
5,"CC(=O)Cc1nsc(NC(=O)c2cc(-c3cccc(C#N)c3)co2)n1 [Compound G-2, 4-(3-Cyanophenyl)-N-(3-(2-oxopropyl)-1,2,4-thiadiazol-5-yl)furan-2-carboxamide]",35.5
6,"COc1cccc(-c2coc(C(=O)Nc3nc(CC(C)=O)ns3)c2)c1 [Compound G-3, 4-(3-Methoxyphenyl)-N-(3-(2-oxopropyl)-1,2,4-thiadiazol-5-yl)furan-2-carboxamide]",33.6
7,"CC(=O)Cc1nsc(NC(=O)c2cc(-c3cccc(OC(F)F)c3)co2)n1 [Compound G-5, 4-(3-(Difluoromethoxy)phenyl)-N-(3-(2-oxopropyl)-1,2,4-thiadiazol-5-yl)furan-2-carboxamide]",32.7
8,"CC(Cc1nsc(NC(=O)c2cc(-c3cccc(C(F)(F)F)c3)co2)n1)N1CCCC1 (centres unmarked) [Compound G-6, N-(3-(2-(pyrrolidin-1-yl)propyl)-1,2,4-thiadiazol-5-yl)-4-(3-(trifluoromethyl)phenyl) furan-2-carboxamide]",13.9
9,"CC(Cc1nsc(NC(=O)c2cc(-c3cccc(C#N)c3)co2)n1)N1CCCCC1 (centres unmarked) [Compound G-7, 4-(3-Cyanophenyl)-N-(3-(2-(piperidin-1-yl)propyl)-1,2,4-thiadiazol-5-yl)furan-2-carboxamide]",23.2
10,"COc1cccc(-c2coc(C(=O)Nc3nc(CC(C)N4CCOCC4)ns3)c2)c1 (centres unmarked) [Compound G-8, 4-(3-Methoxyphenyl)-N-(3-(2-morpholinopropyl)-1,2,4-thiadiazol-5-yl)furan-2-carboxamide]",19.2
11,"CC(O)Cc1nsc(NC(=O)c2cc(-c3cccc(C(F)(F)F)c3)co2)n1 (centres unmarked) [Compound G-11, N-(3-(2-hydroxypropyl)-1,2,4-thiadiazol-5-yl)-4-(3-(trifluoromethyl)phenyl)furan-2-carboxamide]",29.3
12,"CC(O)(Cc1nsc(NC(=O)c2cc(-c3cccc(C#N)c3)co2)n1)C(F)(F)F (centres unmarked) [Compound G-13, 4-(3-Cyanophenyl)-N-(3-(3,3,3-trifluoro-2-hydroxy-2-methylpropyl)-1,2,4-thiadiazol-5-yl) furan-2-carboxamide]",22
13,"COc1cccc(-c2coc(C(=O)Nc3nc(CC(C)=C(F)F)ns3)c2)c1 [Compound G-15, N-(3-(3,3-difluoro-2-methylallyl)-1,2,4-thiadiazol-5-yl)-4-(3-methoxyphenyl)furan-2-carboxamide]",24.1
14,"O=C(Nc1nc(CCl)ns1)c1cc(-c2cccc(C(F)(F)F)c2)co1 [Compound G-19, N-(3-(chloromethyl)-1,2,4-thiadiazol-5-yl)-4-(3-(trifluoromethyl)phenyl)furan-2-carboxamide]",31.4
15,"N#Cc1cccc(-c2coc(C(=O)Nc3nc(CN4CCCCC4)ns3)c2)c1 [Compound G-25, 4-(3-Cyanophenyl)-N-(3-(piperidin-1-ylmethyl)-1,2,4-thiadiazol-5-yl)furan-2-carboxamide]",19.8

# Further lines, results first:
row,IC50 [µM],SMILES
1,15.6,"Cc1oc(C(=O)Nc2nc(CN3CCOCC3)ns2)cc1-c1cccc(OC(F)(F)F)c1 [Compound F-27, 5-Methyl-N-(3-(morpholinomethyl)-1,2,4-thiadiazol-5-yl)-4-(3-(trifluoromethoxy)phenyl)furan-2-carboxamide]"
2,16.4,"Cc1oc(C(=O)Nc2nc(CN3CCN(C)CC3)ns2)cc1-c1cccc(OC(F)F)c1 [Compound F-28, 4-(3-(Difluoromethoxy)phenyl)-5-methyl-N-(3-((4-methylpiperazin-1-yl)methyl)-1,2,4-thiadiazol-5-yl)furan-2-carboxamide]"
3,11.6,"CC(=O)Cc1nsc(NC(=O)c2cc(-c3cccc(OC(F)(F)F)c3)co2)n1 [Compound G-4, N-(3-(2-oxopropyl)-1,2,4-thiadiazol-5-yl)-4-(3-(trifluoromethoxy)phenyl)furan-2-carboxamide]"
4,47.2,"CC(Cc1nsc(NC(=O)c2cc(-c3cccc(OC(F)(F)F)c3)co2)n1)N1CCN(C)CC1 (centres unmarked) [Compound G-9, N-(3-(2-(4-methylpiperazin-1-yl)propyl)-1,2,4-thiadiazol-5-yl)-4-(3-(trifluoromethoxy)phenyl)furan-2-carboxamide]"
5,15.3,"CC(Cc1nsc(NC(=O)c2cc(-c3cccc(OC(F)F)c3)co2)n1)N1CCN(C)CC1 (centres unmarked) [Compound G-10, 4-(3-(Difluoromethoxy)phenyl)-N-(3-(2-(4-methylpiperazin-1-yl)propyl)-1,2,4-thiadiazol-5-yl)furan-2-carboxamide]"
6,23,"CC(F)(F)Cc1nsc(NC(=O)c2cc(-c3cccc(OC(F)(F)F)c3)co2)n1 [Compound G-17, N-(3-(2,2-difluoropropyl)-1,2,4-thiadiazol-5-yl)-4-(3-(trifluoromethoxy)phenyl)furan-2-carboxamide]"
7,24.2,"O=C(Nc1nc(CN2CCCC2)ns1)c1cc(-c2cccc(C(F)(F)F)c2)co1 [Compound G-24, N-(3-(pyrrolidin-1-ylmethyl)-1,2,4-thiadiazol-5-yl)-4-(3-(trifluoromethyl)phenyl)furan-2-carboxamide]"
8,27.1,"COc1cccc(-c2coc(C(=O)Nc3nc(CN4CCOCC4)ns3)c2)c1 [Compound G-26, 4-(3-Methoxyphenyl)-N-(3-(morpholinomethyl)-1,2,4-thiadiazol-5-yl)furan-2-carboxamide]"
9,26.2,CN1CCN(Cc2nsc(NC(=O)c3cc(-c4cccc(OC(F)(F)F)c4)co3)n2)CC1 [Compound G-27]
10,39.2,"CN1CCN(Cc2nsc(NC(=O)c3cc(-c4cccc(OC(F)F)c4)co3)n2)CC1 [Compound G-28, 4-(3-(Difluoromethoxy)phenyl)-N-(3-((4-methylpiperazin-1-yl)methyl)-1,2,4-thiadiazol-5-yl)furan-2-carboxamide]"

# Test system: LNCaP xenograft
# Experiment: LNCaP xenograft model in vivo
# Settings: intratumor injection 2.5 mg/kg/week
# Method: Methods: LNCaP cells were injected to the Male CB17 SCID mice (6-8 weeks old). Once tumor size reached target value, the mice were randomized into three groups with 6-8 mice per group. […] The mice weight and tumor volume were periodically recorded. Finally, the tumors were harvested.
row,SMILES,body weight
1,"CNC(=O)c1ccc(N2C(=S)N(c3ccc(C#N)c(C(F)(F)F)c3)C(=O)C2(C)C)cc1F [Enzalutamide, reference compound]",no significant loss of body weight
